In the supplement of paper PMC9512659:

Experiments:
[1] = tested on: Mycobacterium tuberculosis Erdman (pMV306hsp+LuxG13); experiment: GRinf, normalised growth-rate inhibition at infinite dose (GR value (unitless, negative = killing)); higher = less potent
Experimental: (§1)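 DiaMOND pairwise dose responses of an equipotent two-drug mixture (1.5-fold, 10-dose series) against autoluminescent M. tuberculosis Erdman in 384-well plates. Growth inhibition was read by OD600 (luminescence for dormancy) in seven media at a constant and a terminal time point; metrics are means of at least biological duplicates. Einf and AUC25 higher = more potent; GRinf lower = more potent; log2FIC negative = synergy.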

[2] = tested on: Mycobacterium tuberculosis Erdman (pMV306hsp+LuxG13); experiment: Einf, effect of the drug pair at infinite dose (maximum growth inhibition) (fraction inhibition (0-1)); higher = more potent; extreme values may be limits of the assay
Experimental: as §1

[3] = tested on: Mycobacterium tuberculosis Erdman (pMV306hsp+LuxG13); experiment: log2 fractional inhibitory concentration at 50% inhibition (log2 FIC); higher = more antagonistic
Experimental: as §1

[4] = tested on: Mycobacterium tuberculosis Erdman (pMV306hsp+LuxG13); experiment: AUC25, normalised area under the dose-response curve up to IC25 (normalised AUC (unitless)); higher = more potent
Experimental: as §1

[5] = tested on: Mycobacterium tuberculosis Erdman (pMV306hsp+LuxG13); experiment: log2 fractional inhibitory concentration at 90% inhibition (log2 FIC); higher = more antagonistic
Experimental: as §1

COc1nc2ccc(Br)cc2cc1[C@@H](c1ccccc1)[C@@](O)(CCN(C)C)c1cccc2ccccc12 [bedaquiline] + CC(=O)NC[C@H]1CN(c2ccc(N3CCSCC3)c(F)c2)C(=O)O1 [sutezolid]
Conditions | AUC25, [4] | Einf, [2] | GRinf, [1] | log2 fractional inhibitory concentration, [3] | log2 fractional inhibitory concentration, [5]
growth medium: acidic pH 5.7, glycerol, time point: constant time point | 0.107 | 0.875 | -0.198 | -0.156 | –
growth medium: acidic pH 5.7, glycerol, time point: terminal time point | 0.0983 | 0.978 | -0.241 | -0.088 | -0.436
growth medium: butyrate 5 mM, time point: constant time point | 0.0619 | 0.885 | 0.0684 | 2.21 | –
growth medium: butyrate 5 mM, time point: terminal time point | 0.0554 | 0.949 | 0.0372 | 2.08 | 0.353
growth medium: cholesterol 0.05 mM, time point: constant time point | 0.0778 | 1 | -0.927 | 0.352 | 0.332
growth medium: cholesterol 0.05 mM, time point: terminal time point | 0.132 | 1 | -0.972 | -0.0748 | 0.434
growth medium: cholesterol 0.2 mM (cholesterol-high), time point: constant time point | 0.0763 | 1 | -1 | -0.0255 | 0.279
growth medium: cholesterol 0.2 mM (cholesterol-high), time point: terminal time point | 0.115 | 1 | -0.792 | -0.681 | 0.315
growth medium: standard 7H9 OADC glycerol, time point: constant = terminal time point (4.2 d) | 0.048 | 0.977 | -0.0902 | -0.344 | -1.24
growth medium: valerate 0.1%, time point: constant time point | 0.0485 | 0.864 | -0.287 | 1.21 | –
growth medium: valerate 0.1%, time point: terminal time point | 0.09 | 0.991 | -0.176 | 0.264 | 0.567

growth medium: hypoxic dormancy (butyrate + nitrate), then recovery
Conditions | AUC25, [4] | Einf, [2] | GRinf, [1] | log2 fractional inhibitory concentration, [3] | log2 fractional inhibitory concentration, [5]
time point: constant time point | 0.0577 | 0.989 | 0.17 | -0.353 | -0.371
time point: terminal time point | 0.0431 | 0.975 | 0.359 | 0.424 | -0.465

COc1nc2ccc(Br)cc2cc1[C@@H](c1ccccc1)[C@@](O)(CCN(C)C)c1cccc2ccccc12 [bedaquiline] + CC(C)=CCC/C(C)=C/CNCCNC1C2CC3CC(C2)CC1C3 [SQ109]
Conditions | AUC25, [4] | Einf, [2] | GRinf, [1] | log2 fractional inhibitory concentration, [3] | log2 fractional inhibitory concentration, [5]
growth medium: butyrate 5 mM, time point: constant time point | 0.0731 | 0.963 | -0.11 | 0.85 | 0.414
growth medium: butyrate 5 mM, time point: terminal time point | 0.0507 | 0.979 | -0.0824 | 0.817 | 0.616
growth medium: cholesterol 0.05 mM, time point: constant time point | 0.085 | 0.82 | -0.737 | 0.241 | –
growth medium: cholesterol 0.2 mM (cholesterol-high), time point: constant time point | 0.0719 | 1 | -0.847 | 0.546 | 0.667
growth medium: cholesterol 0.2 mM (cholesterol-high), time point: terminal time point | 0.0884 | 1 | -0.779 | 0.31 | 0.799
growth medium: standard 7H9 OADC glycerol, time point: constant = terminal time point (4.2 d) | 0.0609 | 0.967 | -0.158 | 0.0969 | –
growth medium: valerate 0.1%, time point: constant time point | 0.0593 | 0.996 | -0.151 | 0.191 | -0.0839
growth medium: valerate 0.1%, time point: terminal time point | 0.047 | 0.993 | -0.127 | 0.276 | -0.384

growth medium: hypoxic dormancy (butyrate + nitrate), then recovery
Conditions | AUC25, [4] | Einf, [2] | GRinf, [1] | log2 fractional inhibitory concentration, [3] | log2 fractional inhibitory concentration, [5]
time point: constant time point | 0.0746 | 0.992 | -0.388 | 1.24 | 1.04
time point: terminal time point | 0.0292 | 0.964 | 0.0989 | -0.811 | -0.972
